Among the data in PubChem BioAssay (NCI) are GI50 and TGI values, retold here.

SMILES strings stand for the structures.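 Method: 48-hour compound exposure of cells in 96-well plates, five concentrations, linear interpolation of endpoints. The concentration for 50% growth inhibition is given as GI50. At the TGI there is no net growth.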

Among the test systems are 786-0 renal; A549 NSCLC; CCRF-CEM leukemia; COLO 205 colon; IGROV1 ovarian; LOX IMVI melanoma; M14 melanoma; NCI-H460 lung; NCI/ADR-RES ovarian; SN12C renal.
Experiment in all cases: inhibition of tumour cell growth, NCI panel, 48 h

As to `NC1=C(Cl)C(=O)c2ccc(S(N)(=O)=O)cc2C1=O`, the GI50 was 1.82 µM in the test on 786-0 renal; 0.16 µM in the test with A549 NSCLC; 0.374 µM with CCRF-CEM leukemia; 1.57 µM in the test on COLO 205 colon; 0.681 µM in the test on IGROV1 ovarian; 0.0367 µM in the test with LOX IMVI melanoma. The GI50 in the test with M14 melanoma was 0.134 µM; with NCI-H460 lung, 0.21 µM; in the test on NCI/ADR-RES ovarian, 0.285 µM; with SN12C renal, 0.172 µM. Besides, the TGI in the test on 786-0 renal amounted to 3.24 µM; in the test with A549 NSCLC, 0.358 µM; with CCRF-CEM leukemia it was 2.77 µM; with COLO 205 colon it was 2.98 µM; with IGROV1 ovarian it was 1.57 µM; in the test with LOX IMVI melanoma, 0.182 µM. For the same molecule, the TGI is 0.278 µM in the test with M14 melanoma, 0.487 µM with NCI-H460 lung, 4.68 µM with NCI/ADR-RES ovarian and 0.34 µM in the test with SN12C renal.

With `O=C(O)C1NCCc2c1[nH]c1ccccc21` (stereo unspecified), the GI50 in the test on 786-0 renal, with A549 NSCLC, in the test with CCRF-CEM leukemia, in the test with COLO 205 colon, in the test with IGROV1 ovarian and in the test with M14 melanoma was > 100 µM each time. The GI50 in the test with SN12C renal was > 100 µM. Moreover, the TGI with 786-0 renal, in the test on A549 NSCLC, with CCRF-CEM leukemia, in the test on COLO 205 colon, with IGROV1 ovarian and in the test with LOX IMVI melanoma was > 100 µM in each case. The TGI was > 100 µM in the test on M14 melanoma, > 100 µM in the test on NCI-H460 lung, > 10 µM in the test on NCI/ADR-RES ovarian and > 100 µM with SN12C renal.

With `Oc1ccc(CNCc2ccccc2)c2cccnc12`, the TGI in the test with 786-0 renal is > 24.7 µM; with A549 NSCLC it was > 100 µM; with CCRF-CEM leukemia, 0.343 µM; in the test with COLO 205 colon, > 72 µM; in the test with IGROV1 ovarian it was > 100 µM; in the test on LOX IMVI melanoma, > 100 µM. In addition, the TGI with M14 melanoma worked out at 12 µM; in the test with NCI-H460 lung, 0.184 µM; in the test on NCI/ADR-RES ovarian, 16.9 µM.

As for `NC(CNO)C(=O)O` (stereo unspecified), the TGI in the test on 786-0 renal, in the test with A549 NSCLC, with COLO 205 colon, in the test with IGROV1 ovarian, with LOX IMVI melanoma and in the test on M14 melanoma was > 100 µM throughout. In addition, the TGI with NCI-H460 lung, with NCI/ADR-RES ovarian and with SN12C renal was > 100 µM throughout.

On to `Cc1ccc(S(=O)(=O)/N=c2\ssc(Nc3ccccc3)c2Cl)cc1`, for which the GI50 in the test with 786-0 renal is 27.7 µM; in the test with A549 NSCLC, 14.6 µM; in the test on IGROV1 ovarian, 30.9 µM; in the test with LOX IMVI melanoma it was 10.2 µM; in the test with M14 melanoma, 22.8 µM; in the test with NCI-H460 lung it was 9.02 µM. Also, the GI50 in the test on NCI/ADR-RES ovarian is 10.1 µM; with SN12C renal it was 8.99 µM. In addition, the TGI with 786-0 renal is > 50 µM; in the test on A549 NSCLC it was > 50 µM; in the test on IGROV1 ovarian, > 50 µM; with LOX IMVI melanoma, 20.9 µM; in the test on M14 melanoma, > 50 µM; with NCI-H460 lung, 19.6 µM. Besides, the TGI stood at 27.6 µM in the test with NCI/ADR-RES ovarian and 25.6 µM with SN12C renal.

`Nc1ncnc2c1nc(-c1ccccc1)n2C1OC(CO)C(O)C1O` (stereo unspecified): the TGI with 786-0 renal, in the test on A549 NSCLC, with COLO 205 colon, in the test on IGROV1 ovarian, in the test on LOX IMVI melanoma and with M14 melanoma was > 100 µM throughout. Besides, the TGI in the test with NCI-H460 lung, in the test on NCI/ADR-RES ovarian and with SN12C renal was > 100 µM in each case.

Turning to `CC#CS(=O)(=O)c1ccccc1`, the TGI in the test on 786-0 renal was 16.4 µM; with A549 NSCLC, 31.4 µM; in the test on COLO 205 colon it was 24.7 µM; in the test with IGROV1 ovarian, 25.4 µM; with LOX IMVI melanoma, 21 µM; in the test on M14 melanoma it was 21.4 µM. Also, the TGI with NCI-H460 lung turned out to be 38 µM; with NCI/ADR-RES ovarian, 28.8 µM; in the test on SN12C renal it was 19.4 µM.

On to `COC(=O)C1(C(=O)OC)CC2c3c(c4ccccc4n3C)CC(C1=O)N2Cc1ccccc1` (stereo unspecified), for which the TGI with 786-0 renal, in the test on A549 NSCLC, with CCRF-CEM leukemia, with COLO 205 colon, with IGROV1 ovarian and in the test on LOX IMVI melanoma was > 100 µM throughout. The TGI in the test on M14 melanoma, in the test on NCI-H460 lung and in the test on SN12C renal was > 100 µM in each case.

As to `COc1ccc(C(c2ccc(C(C)C)cc(=O)c2O)c2ccc3cccnc3c2O)cc1` (stereo unspecified), the TGI with 786-0 renal was 5.61 µM; with A549 NSCLC, 12.3 µM; with CCRF-CEM leukemia it was > 100 µM; in the test with COLO 205 colon it was 19.3 µM; in the test on IGROV1 ovarian it was 15.3 µM; in the test on LOX IMVI melanoma it was > 100 µM. Further, the figures for the TGI in the test with M14 melanoma, in the test with NCI-H460 lung and in the test with SN12C renal were 3.06 µM, 10.1 µM and 9.48 µM, respectively.

With `COc1cc(-c2cc(=O)c3ccccc3o2)ccc1N`, the TGI in the test on 786-0 renal, with A549 NSCLC, with CCRF-CEM leukemia, in the test with COLO 205 colon, with IGROV1 ovarian and in the test on LOX IMVI melanoma was > 100 µM throughout. Besides, the TGI in the test on M14 melanoma, in the test with NCI-H460 lung and in the test with SN12C renal was > 100 µM each time.
